In US10184115B2, “Mutated cellobiose dehydrogenase with increased substrate specificity” (DIRECTSENS GMBH, priority 2012, dated 2019) one finds kcat and kcat/KM data, which are given here for one molecule.

Each structure is given as a SMILES string.

The assay addresses T1, Corynascus thermophilus cellobiose dehydrogenase (CDH), recombinant wild type, SEQ ID NO: 7 (Thermothelomyces fergusii, UniProt E7D6B9).
T1 sequence (E7D6B9 24-787): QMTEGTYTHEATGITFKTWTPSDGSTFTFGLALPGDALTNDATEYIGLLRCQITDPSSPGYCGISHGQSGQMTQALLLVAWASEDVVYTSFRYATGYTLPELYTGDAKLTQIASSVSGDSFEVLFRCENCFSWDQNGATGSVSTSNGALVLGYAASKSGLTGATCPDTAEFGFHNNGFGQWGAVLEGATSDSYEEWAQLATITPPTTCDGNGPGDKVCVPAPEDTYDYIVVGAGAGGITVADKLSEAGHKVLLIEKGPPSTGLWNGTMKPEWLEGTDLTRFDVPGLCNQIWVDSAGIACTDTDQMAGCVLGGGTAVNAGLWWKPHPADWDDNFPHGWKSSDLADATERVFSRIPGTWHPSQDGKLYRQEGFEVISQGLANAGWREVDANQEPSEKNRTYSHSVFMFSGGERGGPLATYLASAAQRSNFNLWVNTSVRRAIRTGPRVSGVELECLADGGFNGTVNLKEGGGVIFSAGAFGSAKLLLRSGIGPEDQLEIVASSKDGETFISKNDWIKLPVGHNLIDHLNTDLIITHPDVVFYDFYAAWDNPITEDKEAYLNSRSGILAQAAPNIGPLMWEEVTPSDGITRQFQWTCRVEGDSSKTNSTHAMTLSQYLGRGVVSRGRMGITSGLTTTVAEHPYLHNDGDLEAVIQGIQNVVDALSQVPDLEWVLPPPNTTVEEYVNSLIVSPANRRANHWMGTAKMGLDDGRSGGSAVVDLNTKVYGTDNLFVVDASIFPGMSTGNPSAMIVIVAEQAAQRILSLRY
In words: Steady-state kinetics, DCIP assay: C. thermophilus CDH wt. The following applies: apparent, pH 5.5, 30° C. As for the experimental part: Enzyme activity was assayed at 30° C. using either the DCIP (Karapetyan et al., 2005 Journal of Biotechnology 121: 34-48) or cytochrome c (Canevascini et al., 1991, European Journal of Biochemistry 198: 43-52) as electron acceptor. […] Stock solutions of carbohydrates used for kinetic measurements were prepared in the respective buffer and allowed to stand overnight for mutarotation, while stock solutions of electron acceptors were prepared in water and immediately used. The reaction stoichiometry is 1 for the two-electron acceptor DCIP (1 mole of DCIP reduced per mole of carbohydrate oxidized), but 2 for the one-electron acceptor cytochrome c. Kinetic constants were calculated by fitting the observed data to the Henri-Michaelis-Menten equation or to the adapted model for substrate inhibition using nonlinear least-squares regression and the program SigmaPlot (Systat Software, San Jose, Calif., USA). […]
Recombinant wild-type CDH as well as variants were produced in 1 L baffled flasks. […] Increase in activity was monitored using the DCIP and the cytochrome c enzyme assays. […]
The sample was loaded on a 20 mL PHE Sepharose FF column (HR26/20) equilibrated with 50 mM Na-acetate buffer pH 5.5 containing 20% ammonium sulfate. […] Fractions were tested for CDH activity and pooled according to the highest Reinheitszahl (RZ, calculated from the absorbance ratio 420 nm/280 nm). […]

By kcat is commonly meant the maximal rate divided by the concentration of active sites. For orientation: kcat/KM means the turnover number divided by the Michaelis constant. On to `OC[C@H]1OC(O)[C@H](O)[C@@H](O)[C@@H]1O` (some centres unmarked) [Glucose, glucose], for which the kcat was found to be 4.09 s⁻¹ and the kcat/KM worked out at 170 M⁻¹ s⁻¹.
